In patent publication US20250282753A1, “COMPOUNDS USEFUL FOR REDUCING URIC ACID” (ATOM BIOSCIENCE AMERICA CORPORATION, priority 2022, published 2025):
Where a name gives a salt, the structure may show the parent alone.

Columns and labels:
[1] = Pharmacokinetics of the compounds in SD rats (Example 36); type: in vivo; conditions: SD rat plasma
Protocol: Preparation of compound stock solution: An appropriate amount of compound solid powder was be weighed and added in a certain amount of DMSO, and vortex ultrasound to obtain a 10 mg/mL stock solution.
(§1) Preparation of test compound for gavage: respectively taking an appropriate amount of the compound stock solution, adding a certain amount of Solutol HS15 solution, vortexing for 1 minute, then adding a certain amount of physiological saline, and fully mixing to obtain a 1 mg/mL solution.
as §1, with “for intravenous injection:” for “for gavage:”, “mixing until uniform, so as” for “mixing”, “a 0.5” for “a 1”
The experimental animals were fasted overnight before gavage administration, and were given food 4 hours after administration, with free access to water. Each test compound was divided into two groups, namely intravenous administration group and oral administration group.
Blood samples (150 μL/sample) were collected from the jugular vein of SD rats before administration and at 5 min (only intravenous administration group), 15 min, 30 min, 1 h, 2 h, 4 h, 8 h and 24 h after administration, respectively. The samples were placed in centrifuge tubes containing anticoagulant sodium heparin and centrifuged at 4° C., 2000 g for 5 minutes to separate plasma. The plasma samples were analyzed by LC/MS/MS to detect the concentration of each test compound.
Non-compartmental model-related parameters were calculated by WinNonlin® Professional software.

[2] = tested on: potassium oxonate-induced hyperuricemic rats; experiment: Serum uric acid in potassium oxonate-induced hyperuricemic rats, 3 days of gavage (Example 35); type: in vivo, SD rats; conditions: for serum uric acid level compared with the model group at the same time point: 2 mg/kg for 3 days; for Uric acid 0 h / Uric acid 1 h / Uric acid 3 h / Uric acid 5 h: serum, 2 mg/kg gavage for 3 days, mean ± SD; for Uric acid 0 h: day 3, 0 h, before potassium oxonate injection, n=6; for Uric acid 1 h: day 3, 1 h after potassium oxonate injection; for Uric acid 3 h: day 3, 3 h after potassium oxonate injection; for Uric acid 5 h: day 3, 5 h after potassium oxonate injection
Protocol: Compound 13 was a light yellow powder, and compounds 38 and 41 are pseudo-white powders, which are triturated with 0.5% CMC-Na just prior to use to prepare a 0.4 mg/mL suspension for gavage.
36 male SD rats weighed approximately 220-240 g after one week of adaptation. […] The drugs in each group were prepared into a corresponding concentration suspension, and the administration volume was 0.5 mL/100 g.
After the rats in each group were purchased and adapted to feeding, they were fasted for 12 h, and, intraperitoneally, injected with⋅ potassium⋅ gxonate at a⋅dose of 300 mg/kg to establish the model. 0.5 h after modeling, each test drug group was gavaged once. The drug was administered continuously for 3 days. On day 3, blood samples was collected from the retro-orbital venous plexus before and 1, 3, and 5 h after potassium oxonate injection. The samples were centrifuged at 3500 rpm for 10 min, and 30 μL of serum was collected to determine the uric acid level at each time point.
The measurement data of each test were expressed as (mean)±standard deviation). The comparison between groups used ANOVA-Dunnett T test to examine the significance. P<0.05 was used as the significance index, and P<0.01 was used as the extremely significant index.

[3] = tested on: potassium oxonate-induced hyperuricemic rats; experiment: Serum uric acid in potassium oxonate-induced hyperuricemic rats, single gavage (Example 34); type: in vivo, SD rats; conditions: for serum uric acid level compared with the model group at the same time point: P<0.05; for Uric acid 0 h / Uric acid 1 h / Uric acid 3 h / Uric acid 5 h: serum, mean ± SD; for Uric acid 0 h: before potassium oxonate injection; for Uric acid 1 h: 1 h after potassium oxonate injection; for Uric acid 3 h: 3 h after potassium oxonate injection; for Uric acid 5 h: 5 h after potassium oxonate injection
Protocol: 36 male SD rats weighed approximately 200-230 g after one week of adaptation. […] The drugs in each group were prepared into a corresponding concentration suspension, and the administration volume was 0.5 mL/100 g.
After the rats in each group were purchased and adapted to feeding, they were fasted for 12 h, and intraperitoneally injected with potassium oxonate at a dose of 300 mg/kg to establish the model. After 0.5 h of model establishment, each test drug group was gavaged once. Blood was collected from the retro-orbital venous plexus before and 1, 3, and 5 h after potassium oxonate injection. The samples were centrifuged at 3500 rpm for 10 min. 30 μL of serum was collected to determine the uric acid level at each time point.
The measurement data of each test were expressed as (mean)+standard deviation). The comparison between groups used ANOVA-Dunnett T test to examine the significance. P<0.05 was used as the significance index, and P<0.01 was used as the extremely significant index.

[4] = Intravenous injection administration - 1 mg/kg
[5] = po, Gavage administration - 10 mg/kg
[6] = 1, 3, and 5 h after modeling, P<0.01 or P<0.05

SMILES	AUC(0-inf) [1, 4]	Cmax [1, 4]	MRT inf [1, 4]	Tmax [1, 4]	half-life [1, 4]	AUC(0-inf) [1, 5]	Cmax [1, 5]	MRT inf [1, 5]	Tmax [1, 5]	half-life [1, 5]	other results
CCOC(=O)c1cnn(-c2ccc3c(c2)c(C#N)nn3C(C)C)c1 [Compound 2, ethyl 1-(3-cyano-1-isopropyl-1H-indazol-5-yl)-1H-pyrazole-4-carboxylate]	1400 ng·h/mL	843 ng/mL	5.05 h	8.34 min	367 min	30100 ng·h/mL	4780 ng/mL	4.78 h	40 min	175 min	
COC(=O)c1cnn(-c2ccc3c(c2)c(C#N)nn3C(C)C)c1 [Compound 5, methyl 1-(3-cyano-1-isopropyl-1H-indazol-5-yl)-1H-pyrazole-4-carboxylate]	1490 ng·h/mL	554 ng/mL	8.38 h	15 min	447 min	25100 ng·h/mL	6750 ng/mL	3.17 h	70.2 min	227 min	
CC(C)OC(=O)c1cnn(-c2ccc3c(c2)c(C#N)nn3C(C)C)c1 [Compound 7, isopropyl 1-(3-cyano-1-isopropyl-1H-indazol-5-yl)-1H-pyrazole-4-carboxylate]	674 ng·h/mL	338 ng/mL	7.65 h	11.6 min	516 min	12900 ng·h/mL	2920 ng/mL	3.84 h	30 min	196 min	
CC(C)=CCC/C(C)=C/CC/C(C)=C/COC(=O)c1cnn(-c2ccc3c(c2)c(C#N)nn3C(C)C)c1 [Compound 13, (3,7,11-trimethyldodecyl-2,6,10-trien-1-yl) 1-(3-cyano-1-isopropyl-1H-indazol-5-yl)-1H-pyrazole-4-carboxylate]											serum uric acid level compared with the model group at the same time point [2, 6]: significantly reduce; Uric acid 0 h [2]: 40.7 ± 4.4 µmol/L; Uric acid 1 h [2]: 42.1 ± 10.6 µmol/L; Uric acid 3 h [2]: 66.0 ± 10.7 µmol/L; Uric acid 5 h [2]: 75.0 ± 7.1 µmol/L
COC(=O)c1ccnc(-c2ccc3c(c2)c(C#N)nn3C(C)C)c1 [Compound 19, methyl 2-(3-cyano-1-isopropyl-1H-indazol-5-yl) isonicotinate]	776 ng·h/mL	518 ng/mL	6.46 h	15 min	527 min	25300 ng·h/mL	6170 ng/mL	2.86 h	40 min	140 min	
Cc1oc(=O)oc1COC(=O)c1ccnc(-c2ccc3c(c2)c(C#N)nn3C(C)C)c1 [Compound 22, (5-methyl-2-oxo-1,3-dioxol-4-yl)methyl 2-(3-cyano-1-isopropyl-1H-indazol-5-yl) isonicotinate]											serum uric acid level compared with the model group at the same time point ([3]; 1.45 mg/kg group, 1 h after modeling): significantly reduce; serum uric acid level compared with the model group at the same time point ([3]; 2.9 mg/kg group, 1 and 5 h after modeling): significantly reduce; Uric acid 0 h ([3]; 1.45 mg/kg gavage once): 64.0 ± 13.1 µmol/L; Uric acid 1 h ([3]; 1.45 mg/kg gavage once): 88.1 ± 17.8 µmol/L; Uric acid 3 h ([3]; 1.45 mg/kg gavage once): 86.5 ± 11.5 µmol/L; Uric acid 5 h ([3]; 1.45 mg/kg gavage once): 78.1 ± 11.1 µmol/L; Uric acid 0 h ([3]; 2.90 mg/kg gavage once): 66.4 ± 7.0 µmol/L; Uric acid 1 h ([3]; 2.90 mg/kg gavage once): 88.3 ± 11.9 µmol/L; Uric acid 3 h ([3]; 2.90 mg/kg gavage once): 77.1 ± 13.2 µmol/L; Uric acid 5 h ([3]; 2.90 mg/kg gavage once): 70.9 ± 6.3 µmol/L
CCOC(=O)OC(C)OC(=O)c1ccnc(-c2ccc3c(c2)c(C#N)nn3C(C)C)c1 (stereo not shown) [Compound 26, ethyl {1-[(ethoxycarbonyl)oxy]} 2-(3-cyano-1-isopropyl-1H-indazol-5-yl) isonicotinate]	1290 ng·h/mL	1970 ng/mL	2.47 h	4.98 min	427 min	31000 ng·h/mL	5520 ng/mL	3.57 h	55 min	151 min	
CC(=O)OCCOC(=O)c1ccnc(-c2ccc3c(c2)c(C#N)nn3C(C)C)c1 [Compound 28, (2-acetoxy)ethyl 2-(3-cyano-1-isopropyl-1H-indazol-5-yl) isonicotinate]	947 ng·h/mL	712 ng/mL	4.31 h	4.98 min	493 min	15800 ng·h/mL	3150 ng/mL	3.55 h	130 min	176 min	
COCCOC(=O)c1ccnc(-c2ccc3c(c2)c(C#N)nn3C(C)C)c1 [Compound 31, (2-methoxy)ethyl 2-(3-cyano-1-isopropyl-1H-indazol-5-yl) isonicotinate hydrobromide]	1010 ng·h/mL	904 ng/mL	4.75 h	4.98 min	542 min	20900 ng·h/mL	4310 ng/mL	3.39 h	120 min	165 min	
CC(C)n1nc(C#N)c2cc(-n3cc(C(=O)OCCCCO[N+](=O)[O-])cn3)ccc21 [Compound 38, [4-(nitrooxy)] butyl 1-(3-cyano-1-isopropyl-1H-indazol-5-yl)-1H-pyrazole-4-carboxylate]											serum uric acid level compared with the model group at the same time point [2, 6]: significantly reduce; Uric acid 0 h [2]: 51.7 ± 5.9 µmol/L; Uric acid 1 h [2]: 67.5 ± 19.3 µmol/L; Uric acid 3 h [2]: 69.0 ± 24.7 µmol/L; Uric acid 5 h [2]: 51.7 ± 6.7 µmol/L
CC(C)n1nc(C#N)c2cc(-c3cc(C(=O)OCCCCO[N+](=O)[O-])ccn3)ccc21 [Compound 39, [4-(nitrooxy)] butyl 2-(3-cyano-1-isopropyl-1H-indazol-5-yl) isonicotinate]	886 ng·h/mL	714 ng/mL	7.16 h	4.98 min	595 min	18300 ng·h/mL	3900 ng/mL	3.9 h	30 min	182 min	
CC(C)n1nc(C#N)c2cc(-n3cc(C(=O)Oc4cccc(CO[N+](=O)[O-])c4)cn3)ccc21 [Compound 41, [3-(nitrooxy)methyl]phenyl 1-(3-cyano-1-isopropyl-1H-indazol-5-yl)-1H-pyrazole-4-carboxylate]											serum uric acid level compared with the model group at the same time point ([2]; 3 and 5 h after modeling, P<0.01): significantly reduce; Uric acid 0 h [2]: 50.6 ± 7.3 µmol/L; Uric acid 1 h [2]: 74.1 ± 16.5 µmol/L; Uric acid 3 h [2]: 72.2 ± 20.2 µmol/L; Uric acid 5 h [2]: 55.4 ± 14.9 µmol/L
CC(C)n1nc(C#N)c2cc(-c3cc(C(=O)Oc4cccc(CO[N+](=O)[O-])c4)ccn3)ccc21 [Compound 42, [3-(nitrooxy)methyl]phenyl 2-(3-cyano-1-isopropyl-1H-indazol-5-yl) isonicotinate]	767 ng·h/mL	2.82 ng/mL	3.37 h	4.98 min	386 min	8640 ng·h/mL	1510 ng/mL	4.12 h	94.8 min	175 min	
